Target: Tyrosine-protein kinase BTK (Homo sapiens, UniProt Q06187)
Test: Inhibition Assay: The inhibitory properties of compounds relative to BTK is determined using a black 384-well-plate format in a buffer which contains 50 mM Hepes, 10 mM NaCl, 10 mM MgCl2, 0.2 mM EDTA, 0.01% Brij35®, 1 mM DTT, and 0.1 mg/mL BSA at pH 7.3. The test compound is prepared in DMSO using 2-fold serial dilutions for 11 data points, which are added to the buffer so that each dilution contains 3% DMSO. […] The reaction mixtures are incubated at room temperature for 60 minutes and then quenched by adding 25 μL of 50 mM EDTA. To quantify the fluorescent-labeled substrate and product following reaction, the test plate is loaded on a Caliper LC-3000, which measures percent of conversion by microfluidic-based separation.

Sequence of Tyrosine-protein kinase BTK (Q06187 whole entry): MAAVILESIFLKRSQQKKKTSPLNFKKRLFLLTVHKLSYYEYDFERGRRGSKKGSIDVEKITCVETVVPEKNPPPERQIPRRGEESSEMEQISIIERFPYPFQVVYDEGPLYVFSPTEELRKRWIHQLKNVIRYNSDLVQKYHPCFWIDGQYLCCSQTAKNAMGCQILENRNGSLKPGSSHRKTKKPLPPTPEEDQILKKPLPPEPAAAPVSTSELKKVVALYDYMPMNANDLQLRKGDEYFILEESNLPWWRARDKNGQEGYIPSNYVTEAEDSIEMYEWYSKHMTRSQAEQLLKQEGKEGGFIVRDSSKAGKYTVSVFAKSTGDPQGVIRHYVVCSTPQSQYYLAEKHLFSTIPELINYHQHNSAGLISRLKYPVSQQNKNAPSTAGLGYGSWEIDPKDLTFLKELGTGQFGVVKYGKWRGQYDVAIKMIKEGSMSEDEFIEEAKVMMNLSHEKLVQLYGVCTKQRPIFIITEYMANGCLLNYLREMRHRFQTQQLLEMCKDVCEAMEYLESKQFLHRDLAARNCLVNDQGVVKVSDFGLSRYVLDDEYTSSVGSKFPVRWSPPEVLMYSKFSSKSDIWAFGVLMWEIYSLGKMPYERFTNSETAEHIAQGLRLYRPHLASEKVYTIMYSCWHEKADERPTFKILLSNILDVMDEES

| IC50 [nM] | SMILES |
| --- | --- |
| < 1.26 | C=CC(=O)N1CC[C@H](Oc2nc(-c3n[nH]c(=O)[nH]3)cc3cccc(F)c23)C1 |
| < 1.26 | C=CC(=O)N1CC[C@H](Oc2nc(-c3n[nH]c(=O)[nH]3)cc3ccc(Cl)cc23)C1 |
